Experimental data from ChEMBL document CHEMBL1201862, “PubChem BioAssay data set” (2004).
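Step 1: Grow cells in 96-well plates. Step 2: Expose to compound for 48 hours at 5 concentrations. Step 3: Interpolate endpoints linearly; if unreached, use highest concentration. GI50 marks 50% less growth.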 Active and inactive are the calls of the source. No stated cut-off is given here; in the data, active = GI50 up to about 1.1 µM and inactive = higher.

Tests used:
Experiment in all cases: NCI anticancer screen, dose series, 48 h
[1] = system: ACHN
[2] = system: CCRF-CEM
[3] = system: EKVX
[4] = system: HCT-116
[5] = system: HOP-62
[6] = system: K562
[7] = system: LOX IMVI
[8] = system: M14
[9] = system: NCI-H23
[10] = system: NCI-H460
[11] = system: NCI-H522
[12] = system: OVCAR-3
[13] = system: OVCAR-8
[14] = system: RXF 393
[15] = system: SF-268
[16] = system: SK-OV-3
[17] = system: UACC-257
[18] = system: UO-31
[19] = system: MCF7

Structure (SMILES): Cc1nc2c(o1)/C(=N\c1ccccc1)c1ccccc1C2=O
- GI50 [1]: 7.16 µM (inactive)
- GI50 [2]: 10.9 µM (inactive)
- GI50 [3]: 14.2 µM (inactive)
- GI50 [4]: 6.98 µM (inactive)
- GI50 [5]: 13.5 µM (inactive)
- GI50 [6]: 5.7 µM (inactive)
- GI50 [7]: 3.32 µM (inactive)
- GI50 [8]: 9.64 µM (inactive)
- GI50 [9]: 1.9 µM (inactive)
- GI50 [10]: 12.6 µM (inactive)
- GI50 [11]: 4.57 µM (inactive)
- GI50 [12]: 2.54 µM (inactive)
- GI50 [13]: 3.67 µM (inactive)
- GI50 [14]: 20.2 µM (inactive)
- GI50 [15]: 7.83 µM (inactive)
- GI50 [16]: 14.8 µM (inactive)
- GI50 [17]: 5.97 µM (inactive)
- GI50 [18]: 7.89 µM (inactive)

Structure (SMILES): COC(=O)CNC(=O)CCSc1nnc(COc2ccc(Cl)cc2)n1-c1ccccc1
- GI50 [1]: 34.4 µM (inactive)
- GI50 [2]: 55.5 µM (inactive)
- GI50 [3]: 59.6 µM (inactive)
- GI50 [4]: 37.5 µM (inactive)
- GI50 [5]: > 100 µM (inactive)
- GI50 [6]: 30.3 µM (inactive)
- GI50 [7]: 29.1 µM (inactive)
- GI50 [8]: 23.4 µM (inactive)
- GI50 [19]: 71.3 µM (inactive)
- GI50 [9]: 45.6 µM (inactive)
- GI50 [10]: 31.4 µM (inactive)
- GI50 [11]: 15.4 µM (inactive)
- GI50 [12]: 30.9 µM (inactive)
- GI50 [13]: 34.9 µM (inactive)
- GI50 [14]: 25.8 µM (inactive)
- GI50 [15]: 20.3 µM (inactive)
- GI50 [16]: > 100 µM (inactive)
- GI50 [17]: 19.1 µM (inactive)
- GI50 [18]: 34.8 µM (inactive)

Structure (SMILES): COc1cc([C@H]2c3cc4c(cc3[C@H](NCc3ccc(F)cc3)C3COC(=O)[C@H]32)OCO4)cc(OC)c1O (some centres undefined)
- GI50 [1]: 1.13 µM (inactive)
- GI50 [2]: 0.923 µM (active)
- GI50 [3]: 6.19 µM (inactive)
- GI50 [4]: 7.59 µM (inactive)
- GI50 [5]: 1.23 µM (inactive)
- GI50 [6]: 4.36 µM (inactive)
- GI50 [7]: 2.64 µM (inactive)
- GI50 [8]: 3.19 µM (inactive)
- GI50 [9]: 2.22 µM (inactive)
- GI50 [10]: 0.352 µM (active)
- GI50 [11]: 2.43 µM (inactive)
- GI50 [12]: 11.1 µM (inactive)
- GI50 [13]: 4.3 µM (inactive)
- GI50 [14]: 8.04 µM (inactive)
- GI50 [15]: 6.18 µM (inactive)
- GI50 [16]: 2.87 µM (inactive)
- GI50 [17]: 14.8 µM (inactive)
- GI50 [18]: 4.13 µM (inactive)

Structure (SMILES): COC(=O)CC(CNC(=O)OCc1ccccc1)OCc1ccc(OC)cc1 (centres undefined)
- GI50 [1]: > 100 µM (inactive)
- GI50 [2]: > 100 µM (inactive)
- GI50 [3]: > 100 µM (inactive)
- GI50 [4]: > 100 µM (inactive)
- GI50 [6]: > 100 µM (inactive)
- GI50 [7]: > 100 µM (inactive)
- GI50 [8]: > 100 µM (inactive)
- GI50 [19]: > 100 µM (inactive)
- GI50 [9]: 67.5 µM (inactive)
- GI50 [10]: > 100 µM (inactive)
- GI50 [11]: > 100 µM (inactive)
- GI50 [12]: > 100 µM (inactive)
- GI50 [13]: > 100 µM (inactive)
- GI50 [14]: > 100 µM (inactive)
- GI50 [16]: > 100 µM (inactive)
- GI50 [17]: > 100 µM (inactive)
- GI50 [18]: 50.6 µM (inactive)

Structure (SMILES): COc1ccc(-c2cnoc2-c2ccc(OC)c(OC)c2)cc1OC
- GI50 [1]: 4.68 µM (inactive)
- GI50 [2]: 1.73 µM (inactive)
- GI50 [3]: 1.31 µM (inactive)
- GI50 [4]: 1.26 µM (inactive)
- GI50 [5]: 1.1 µM (active)
- GI50 [6]: 0.445 µM (active)
- GI50 [7]: 1.42 µM (inactive)
- GI50 [8]: 0.851 µM (active)
- GI50 [9]: 1.24 µM (inactive)
- GI50 [10]: 2.48 µM (inactive)
- GI50 [11]: 0.556 µM (active)
- GI50 [12]: 1.31 µM (inactive)
- GI50 [13]: 3.1 µM (inactive)
- GI50 [14]: 1.23 µM (inactive)
- GI50 [15]: 2.32 µM (inactive)
- GI50 [16]: 1.47 µM (inactive)
- GI50 [17]: 5.53 µM (inactive)
- GI50 [18]: 4.46 µM (inactive)

Structure (SMILES): O=C(/C=C(\O)C(=O)O)/C=C(\O)c1ccc(Cl)cc1
- GI50 [1]: > 100 µM (inactive)
- GI50 [2]: > 100 µM (inactive)
- GI50 [3]: > 100 µM (inactive)
- GI50 [4]: > 100 µM (inactive)
- GI50 [5]: > 100 µM (inactive)
- GI50 [6]: > 100 µM (inactive)
- GI50 [7]: > 100 µM (inactive)
- GI50 [8]: > 100 µM (inactive)
- GI50 [9]: > 100 µM (inactive)
- GI50 [10]: > 100 µM (inactive)
- GI50 [11]: > 100 µM (inactive)
- GI50 [12]: > 100 µM (inactive)
- GI50 [13]: > 100 µM (inactive)
- GI50 [14]: > 100 µM (inactive)
- GI50 [15]: > 100 µM (inactive)
- GI50 [16]: > 100 µM (inactive)
- GI50 [17]: > 100 µM (inactive)
- GI50 [18]: > 100 µM (inactive)

Structure (SMILES): O=P(CN1CCOCC1)(c1ccccc1)c1ccccc1
- GI50 [1]: > 100 µM (inactive)
- GI50 [2]: > 100 µM (inactive)
- GI50 [3]: > 100 µM (inactive)
- GI50 [4]: > 100 µM (inactive)
- GI50 [5]: > 100 µM (inactive)
- GI50 [6]: > 100 µM (inactive)
- GI50 [7]: > 100 µM (inactive)
- GI50 [8]: > 100 µM (inactive)
- GI50 [9]: > 100 µM (inactive)
- GI50 [10]: > 100 µM (inactive)
- GI50 [11]: > 100 µM (inactive)
- GI50 [12]: > 100 µM (inactive)
- GI50 [13]: > 100 µM (inactive)
- GI50 [14]: > 100 µM (inactive)
- GI50 [15]: > 100 µM (inactive)
- GI50 [16]: > 100 µM (inactive)
- GI50 [17]: > 100 µM (inactive)
- GI50 [18]: > 100 µM (inactive)

Structure (SMILES): CN(C)c1ccc(/C=C2\CCc3ccccc3C2=O)cc1Br
- GI50 [1]: > 100 µM (inactive)
- GI50 [2]: 36 µM (inactive)
- GI50 [3]: 99.5 µM (inactive)
- GI50 [4]: 37.3 µM (inactive)
- GI50 [5]: > 100 µM (inactive)
- GI50 [6]: 33.7 µM (inactive)
- GI50 [7]: 32.7 µM (inactive)
- GI50 [8]: 53.6 µM (inactive)
- GI50 [9]: 68.7 µM (inactive)
- GI50 [10]: > 100 µM (inactive)
- GI50 [11]: 23.2 µM (inactive)
- GI50 [12]: 49 µM (inactive)
- GI50 [13]: 41.1 µM (inactive)
- GI50 [14]: 75.5 µM (inactive)
- GI50 [15]: 65 µM (inactive)
- GI50 [16]: > 100 µM (inactive)
- GI50 [17]: 43.6 µM (inactive)
- GI50 [18]: > 100 µM (inactive)
